A short description of data set [1]: Toxicity in zebrafish embryo at […] measured after 96 hrs post fertilization. On the set-up: species or system Danio rerio. The conditions noted are these: in vivo.
In data set [2] the test system is HT-29. In words: Inhibition of cell migration in human HT-29 cells assessed as downregulation of vimentin level at 1 to 2 uM incubated for 48 hrs by Western blot analysis. The format is functional, cell-based. The note with it: dose 1-2 µM. Background: In western blotting, separated proteins are transferred to a membrane and probed.
Data set [3] concerns HT-29. Briefly: Anticancer activity against human HT-29 cells assessed as viable cells by measuring green fluorescence intensity measured for 48 hrs by Calcein AM staining based fluorescent microscopic analysis. The format is functional, cell-based. The note with it: dose 1-20 µM.
The target in data set [4] is T1, Histone deacetylase (Homo sapiens) (UniProt Q13547+O15379+Q9UBN7+Q92769+Q9UQL6+Q8WUI4+Q9BY41+Q96DB2+P56524+Q9UKV0+Q969S8). Briefly: Inhibition of HDAC in human HT-29 cells assessed as increase in acetyl alpha-tubulin level at 1 to 2 uM incubated for 48 hrs by Western blot analysis. The note with it: dose 1-2 µM. The format is cell-based.
Data set [5] concerns HT-29. In words: Anticancer activity against human HT-29 cells assessed as suppression of cell viability at 10 uM incubated for 48 hrs by MTT assay. It is filed as functional, cell-based. Background: Formazan colour is commonly taken as a measure of viable cells.
For data set [6], the system named is A549. In words: Induction of apoptosis in human A549 cells assessed as upregulation of p53 expression at 2.5 to 5 uM incubated for 48 hrs by Western blot analysis. The format is functional, cell-based. The note with it: dose 2.5-5 µM.
Data set [7] concerns the target T1, Histone deacetylase (Homo sapiens). Briefly: Inhibition of HDAC in human A549 cells incubated for 48 hrs by Western blot analysis. The format is cell-based. The note with it: dose 0.1-10 µM.
In data set [8] the test system is A549. In words: Induction of apoptosis in human A549 cells assessed as increase in caspase 3 level at 2.5 to 5 uM incubated for 48 hrs by Western blot analysis. It is filed as functional, cell-based. The conditions noted are these: dose 2.5-5 µM.
A short description of data set [9]: Toxicity in zebrafish embryo assessed as effect on body length at 0.5 to 2.5 uM measured after 96 hrs post fertilization by microscopic analysis. The note with it: in vivo, dose 0.5-2.5 µM. Also on record: species or system Danio rerio.
Data set [10] concerns HT-29. Briefly: Induction of cell cycle arrest in human HT-29 cells assessed as accumulation at G2/M phase at 2.5 to 5 uM incubated for 24 to 48 hrs by PI-staining based flow cytometric analysis. The format is functional. The note with it: dose 2.5-5 µM, time 24-48 hrs. For orientation: In flow cytometry, cells or beads pass a laser one at a time.
The test system of data set [11] is HT-29. Briefly: Inhibition of cell migration in human HT-29 cells assessed as upregulation of E-cadherin level at 1 to 2 uM incubated for 48 hrs by Western blot analysis. The format is functional, cell-based. The conditions noted are these: dose 1-2 µM.
Data set [12] relates to HT-29. In words: Inhibition of cell migration in human HT-29 cells at 0.5 uM measured immediately by wound healing assay (reference value: 100%); values are per cent of control.
Data set [13] concerns HT-29. In words: Inhibition of cell migration in human HT-29 cells assessed as downregulation of slug level at 1 to 2 uM incubated for 48 hrs by Western blot analysis. The format is functional, cell-based. The note with it: dose 1-2 µM.
Another data set concerns NCI-H1299. Briefly: Anticancer activity against human NCI-H1299 cells assessed as reduction in cell viability at 10 to 40 uM incubated for 48 hrs by MTT assay. The format is functional, cell-based. The conditions noted are these: dose 10-40 µM.
A short description of data set [14]: Toxicity in zebrafish embryo assessed as formation of spinal curvature at 0.5 to 2.5 uM measured after 96 hrs post fertilization by microscopic analysis. On the set-up: species or system Danio rerio. The conditions noted are these: in vivo, dose 0.5-2.5 µM.
Data set [15] concerns HT-29. In words: Inhibition of colony formation in human HT-29 cells at 50 to 100 nM measured for 10 days by crystal violet staining based analysis. It is filed as functional, cell-based. The note with it: dose 50-100 nM, time 10.0 day.
Data set [16] concerns A549. In words: Anticancer activity against human A549 cells cultured as 3D spheroids assessed as suppression of cell growth at 10 uM incubated for 48 hrs by celltiter-glo luminescent assay. The format is functional, cell-based.
The test system of data set [17] is A549. Briefly: Induction of cell cycle arrest in human A549 cells assessed as effect on cyclin B1 level at 2.5 to 5 uM incubated for 48 hrs by Western blot analysis. The format is functional, cell-based. The conditions noted are these: dose 2.5-5 µM.
The subject of data set [18] is A549. In words: Anticancer activity against human A549 cells assessed as suppression of cell viability at 10 uM incubated for 48 hrs by MTT assay. The format is functional, cell-based.
For data set [19], the system named is A549. Briefly: Anticancer activity against human A549 cells assessed as viable cells by measuring green fluorescence intensity measured for 48 hrs by Calcein AM staining based fluorescent microscopic analysis. It is filed as functional, cell-based. The note with it: dose 1-20 µM.
Data set [20] in a line: Toxicity in zebrafish embryo assessed as hatching rate at 0.5 to 2.5 uM measured after 72 hrs post fertilization by microscopic analysis. Also on record: species or system Danio rerio. The conditions noted are these: in vivo, dose 0.5-2.5 µM.
The test system of data set [21] is A549. In words: Inhibition of colony formation in human A549 cells at 125 to 250 nM measured for 10 days by crystal violet staining based analysis. The note with it: dose 125-250 nM, time 10.0 day. The format is functional, cell-based.
Data set [22] concerns A549. Briefly: Induction of cell cycle arrest in human A549 cells assessed as effect on p21 level at 2.5 to 5 uM incubated for 48 hrs by Western blot analysis. It is filed as functional, cell-based. The note with it: dose 2.5-5 µM.
The target in data set [23] is T1, Histone deacetylase (Homo sapiens). Briefly: Inhibition of HDAC in human HT-29 cells assessed as increase in histone acetylation level at 1 to 2 uM incubated for 48 hrs by Western blot analysis. It is filed as cell-based. The note with it: dose 1-2 µM.
Data set [24] in a line: Toxicity in zebrafish embryo assessed as formation of spinal curvature at 1 to 5 uM measured after 96 hrs post fertilization by microscopic analysis. Also on record: species or system Danio rerio. The conditions noted are these: in vivo, dose 1-5 µM.
Data set [25] has as its target T1, Histone deacetylase (Homo sapiens). In words: Inhibition of HDAC in human HT-29 cells incubated for 48 hrs by Western blot analysis. The note with it: dose 0.1-10 µM. The format is cell-based.
Data set [26] has as its system HT-29. In words: cells. The format is functional, cell-based. The conditions noted are these: Homo sapiens, HT-29, 48 h.
Description: Anticancer activity against human HT-29 cells assessed as inhibition of cell growth measured for 48 hrs by MTT assay
Data set [27] relates to A549. In words: Inhibition of cell migration in human A549 cells at 1.25 uM measured at 48 hrs by wound healing assay (reference value: 42.3%); values are per cent of control. The conditions noted are these: A549, 48 h.
Data set [28] relates to A549. In words: Induction of cell cycle arrest in human A549 cells assessed as accumulation at G2/M phase at 2.5 to 5 uM incubated for 24 to 48 hrs by PI-staining based flow cytometric analysis. The format is functional. The conditions noted are these: dose 2.5-5 µM, time 24-48 hrs.
Data set [29] is described as follows: Toxicity in zebrafish embryo assessed as survival rate at 0.5 to 2.5 uM measured after 72 hrs post fertilization. The note with it: in vivo, dose 0.5-2.5 µM. Also on record: species or system Danio rerio.
For data set [30], the system named is HT-29. In words: Inhibition of cell migration in human HT-29 cells at 0.5 uM measured at 24 hrs by wound healing assay (reference value: 85.7%); values are per cent of control. The note with it: HT-29, 24 h.
Data set [31] in a line: Toxicity in zebrafish embryo assessed as yolk sac edema at 0.5 to 2.5 uM measured after 96 hrs post fertilization by microscopic analysis. On the set-up: species or system Danio rerio. The conditions noted are these: in vivo, dose 0.5-2.5 µM.
Data set [32] deals with A549. In words: Inhibition of cell migration in human A549 cells at 1.25 uM measured at 24 hrs by wound healing assay (reference value: 68.4%). It is filed as functional.
Data set [33] has as its system A549. Briefly: cells. It is filed as functional, cell-based. The conditions noted are these: Homo sapiens, A549, 48 h.
Description: Anticancer activity against human A549 cells assessed as inhibition of cell growth measured for 48 hrs by MTT assay
Data set [34] can be described thus: Toxicity in zebrafish embryo assessed as formation of scoliosis at 0.5 to 2.5 uM measured after 96 hrs post fertilization by microscopic analysis. Also on record: species or system Danio rerio. The conditions noted are these: in vivo, dose 0.5-2.5 µM.
Data set [35] relates to A549. In words: Induction of cell cycle arrest in human A549 cells assessed as accumulation at sub G1 at 2.5 to 5 uM incubated for 24 to 48 hrs by PI-staining based flow cytometric analysis. The format is functional. The conditions noted are these: dose 2.5-5 µM, time 24-48 hrs.
The test system of data set [36] is A549. Briefly: Inhibition of cell migration in human A549 cells at 1.25 uM measured immediately by wound healing assay (reference value: 100%); values are per cent of control.
Data set [37] relates to HT-29. In words: Inhibition of cell migration in human HT-29 cells at 0.5 uM measured at 48 hrs by wound healing assay (reference value: 73.2%); values are per cent of control. The conditions noted are these: HT-29, 48 h.
Data set [38] concerns A549. In words: Induction of apoptosis in human A549 cells assessed as increase in PARP level at 2.5 to 5 uM incubated for 48 hrs by Western blot analysis. The note with it: dose 2.5-5 µM. The format is functional, cell-based.

pIC50: −log10 of the molar value. Active and inactive are the calls of the source. The calls are words filed in the database; no cut-off is given here.

As to `NC(=O)NO` [HYDROXYUREA], the Activity result in data set [1] is on record as “Toxic”.

In the case of `COc1ccc(S(=O)(=O)n2cc(Cc3ccc(C(=O)Nc4ccccc4N)cc3)c3ccccc32)cc1`, the inhibition result (in the data set on HT-29 [2]; in data set [4]; in [7]; with HT-29 [11]; with HT-29 [13]; in the data set with HT-29 [15]) was “Active” each time. Further, the inhibition result (in the data set on A549 [21]; in data set [23]; in data set [25]) was “Active” throughout. For the same compound, the Activity entry with HT-29 [3] was “Dose-Dependent Effect”; in data set [9] it was “Non-Toxic”; in [14] it was “Non-Toxic”; in the data set with A549 [19] it was “Dose-Dependent Effect”; in data set [20], 100%; in data set [24] it was “Non-Toxic”. For the same compound, the Activity entry in data set [31] and in data set [34] was “Non-Toxic” in each case. The outcome in the data set on HT-29 [5], with A549 [6], with A549 [8], in the data set on HT-29 [10], with NCI-H1299 and in the data set with A549 [16] was Active. Besides, the outcome in the data set with A549 [17], in the data set with A549 [18], with A549 [22], with A549 [28], in the data set on A549 [35] and with A549 [38] was Active. Moreover, the values for the wound area remaining at 0.5 µM in the data set with HT-29 [12], in the data set with HT-29 [30] and in the data set on HT-29 [37] were 100%, 93.8% and 90.1%, respectively. For the same compound, the values for the pIC50 with HT-29 [26] and in the data set with A549 [33] were 6.04 and 5.60, respectively. The wound area remaining at 1.25 µM came out at 53.3% in the data set with A549 [27] and 100% with A549 [36]. The survival at 72 h, up to 2.5 µM in data set [29] was ~100%. Also, the inhibition – broadly, the relative decrease from the control value, in per cent – at 1.25 µM with A549 [32] came to 77.4%.

The values above are taken from ChEMBL document CHEMBL5550180, “Enhancing anti-cancer capacity: Novel class I/II HDAC inhibitors modulate EMT, cell cycle, and apoptosis pathways” (Bioorg Med Chem, 2024).
